Assay results as given in ChEMBL document CHEMBL4813981, “Synthesis and in vitro antibacterial activity of new aminothiazole-oximepiperidone cephalosporins” (2021).
Converted amounts (≈) assume the structure as drawn.

Key:
Type in all cases: functional
Acinetobacter baumannii [1] = assay: Antibacterial activity against Carbapenem- resistant Acinetobacter baumannii 17-5 assessed as reduction in bacterial growth
Acinetobacter baumannii [2] = assay: Antibacterial activity against Carbapenem- resistant Acinetobacter baumannii 17-2 assessed as reduction in bacterial growth
Pseudomonas aeruginosa [3] = assay: Antibacterial activity against Pseudomonas aeruginosa ATCC 27853 assessed as reduction in bacterial growth
Klebsiella pneumoniae [4] = assay: Antibacterial activity against Carbapenem- sensitive Klebsiella pneumoniae 17-12 overexpressing extended spectrum beta-lactamases assessed as reduction in bacterial growth
Klebsiella pneumoniae [5] = assay: Antibacterial activity against Carbapenem- sensitive Klebsiella pneumoniae 17-7 overexpressing extended spectrum beta-lactamases assessed as reduction in bacterial growth
Klebsiella pneumoniae [6] = assay: Antibacterial activity against Carbapenem- sensitive Klebsiella pneumoniae 17-3 overexpressing extended spectrum beta-lactamases assessed as reduction in bacterial growth
Escherichia coli [7] = assay: Antibacterial activity against ESBLs positive Carbapenem-sensitive Escherichia coli 17-14 assessed as reduction in bacterial growth
Klebsiella pneumoniae [8] = assay: Antibacterial activity against Carbapenem- sensitive Klebsiella pneumoniae 17-10 overexpressing extended spectrum beta-lactamases assessed as reduction in bacterial growth
Acinetobacter baumannii [9] = assay: Antibacterial activity against Carbapenem- resistant Acinetobacter baumannii 17-6 assessed as reduction in bacterial growth
Klebsiella aerogenes [10] = assay: Antibacterial activity against Enterobacter aerogenes 17-4 assessed as reduction in bacterial growth
Klebsiella pneumoniae [11] = assay: Antibacterial activity against ESBLs negative Carbapenem-sensitive Klebsiella pneumoniae 17-16 assessed as reduction in bacterial growth
Escherichia coli [12] = assay: Antibacterial activity against ESBLs positive Carbapenem-sensitive Escherichia coli 17-11 assessed as reduction in bacterial growth
Pseudomonas aeruginosa [13] = assay: Antibacterial activity against Carbapenem- sensitive Pseudomonas aeruginosa 17-24 assessed as reduction in bacterial growth
Klebsiella pneumoniae [14] = assay: Antibacterial activity against Carbapenem- sensitive Klebsiella pneumoniae 17-8 overexpressing extended spectrum beta-lactamases assessed as reduction in bacterial growth
Enterobacter cloacae [15] = assay: Antibacterial activity against Enterobacter cloacae 17-4 assessed as reduction in bacterial growth
Pseudomonas aeruginosa [16] = assay: Antibacterial activity against Carbapenem- sensitive Pseudomonas aeruginosa 17-26 assessed as reduction in bacterial growth
Klebsiella pneumoniae [17] = assay: Antibacterial activity against Carbapenem- sensitive Klebsiella pneumoniae 17-15 overexpressing extended spectrum beta-lactamases assessed as reduction in bacterial growth
Klebsiella pneumoniae [18] = assay: Antibacterial activity against Carbapenem- sensitive Klebsiella pneumoniae 17-2 overexpressing extended spectrum beta-lactamases assessed as reduction in bacterial growth
Klebsiella aerogenes [19] = assay: Antibacterial activity against Enterobacter aerogenes 17-3 assessed as reduction in bacterial growth
Klebsiella pneumoniae [20] = assay: Antibacterial activity against Carbapenem- resistant Klebsiella pneumoniae KR 15-9 assessed as reduction in bacterial growth
Klebsiella pneumoniae [21] = assay: Antibacterial activity against Carbapenem- resistant Klebsiella pneumoniae KR 15-5 assessed as reduction in bacterial growth
Klebsiella pneumoniae [22] = assay: Antibacterial activity against Carbapenem- sensitive Klebsiella pneumoniae 17-13 overexpressing extended spectrum beta-lactamases assessed as reduction in bacterial growth
Pseudomonas aeruginosa [23] = assay: Antibacterial activity against Carbapenem- resistant Pseudomonas aeruginosa 17-8 assessed as reduction in bacterial growth
Klebsiella pneumoniae [24] = assay: Antibacterial activity against Klebsiella pneumoniae ATCC BAA-1705 assessed as reduction in bacterial growth
Escherichia coli [25] = assay: Antibacterial activity against ESBLs negative Carbapenem-sensitive Escherichia coli 17-1 assessed as reduction in bacterial growth
Pseudomonas aeruginosa [26] = assay: Antibacterial activity against Carbapenem- resistant Pseudomonas aeruginosa 17-5 assessed as reduction in bacterial growth
Escherichia coli [27] = assay: Antibacterial activity against ESBLs positive Carbapenem-sensitive Escherichia coli 17-12 assessed as reduction in bacterial growth
Klebsiella pneumoniae [28] = assay: Antibacterial activity against Carbapenem- resistant Klebsiella pneumoniae KR 15-6 assessed as reduction in bacterial growth
Escherichia coli [29] = assay: Antibacterial activity against ESBLs positive Carbapenem-sensitive Escherichia coli 17-15 assessed as reduction in bacterial growth
Klebsiella pneumoniae [30] = assay: Antibacterial activity against Carbapenem- sensitive Klebsiella pneumoniae 17-4 overexpressing extended spectrum beta-lactamases assessed as reduction in bacterial growth
Acinetobacter baumannii [31] = assay: Antibacterial activity against Carbapenem- resistant Acinetobacter baumannii 17-10 assessed as reduction in bacterial growth
Klebsiella pneumoniae [32] = assay: Antibacterial activity against Carbapenem- resistant Klebsiella pneumoniae KR 15-11 assessed as reduction in bacterial growth
Escherichia coli [33] = assay: Antibacterial activity against ESBLs negative Carbapenem-sensitive Escherichia coli 17-9 assessed as reduction in bacterial growth
Klebsiella aerogenes [34] = assay: Antibacterial activity against Enterobacter aerogenes 15-5 assessed as reduction in bacterial growth
Escherichia coli [35] = assay: Antibacterial activity against ESBLs positive Carbapenem-sensitive Escherichia coli 17-8 assessed as reduction in bacterial growth
Klebsiella pneumoniae [36] = assay: Antibacterial activity against ESBLs negative Carbapenem-sensitive Klebsiella pneumoniae 17-17 assessed as reduction in bacterial growth
Klebsiella aerogenes [37] = assay: Antibacterial activity against Enterobacter aerogenes 17-1 assessed as reduction in bacterial growth
Acinetobacter baumannii [38] = assay: Antibacterial activity against Carbapenem- resistant Acinetobacter baumannii 17-9 assessed as reduction in bacterial growth
Pseudomonas aeruginosa [39] = assay: Antibacterial activity against Carbapenem- resistant Pseudomonas aeruginosa 17-1 assessed as reduction in bacterial growth
Pseudomonas aeruginosa [40] = assay: Antibacterial activity against Carbapenem- sensitive Pseudomonas aeruginosa 17-21 assessed as reduction in bacterial growth
Enterobacter cloacae [41] = assay: Antibacterial activity against Enterobacter cloacae 17-1 assessed as reduction in bacterial growth
Acinetobacter baumannii [42] = assay: Antibacterial activity against Acinetobacter baumannii NCTC 13304 assessed as reduction in bacterial growth
Acinetobacter baumannii [43] = assay: Antibacterial activity against Carbapenem- resistant Acinetobacter baumannii 17-3 assessed as reduction in bacterial growth
Klebsiella pneumoniae [44] = assay: Antibacterial activity against Carbapenem- resistant Klebsiella pneumoniae KR 15-13 assessed as reduction in bacterial growth
Enterobacter cloacae [45] = assay: Antibacterial activity against Enterobacter cloacae 17-9 assessed as reduction in bacterial growth
Escherichia coli [46] = assay: Antibacterial activity against ESBLs negative Carbapenem-sensitive Escherichia coli 17-16 assessed as reduction in bacterial growth
Enterobacter cloacae [47] = assay: Antibacterial activity against Enterobacter cloacae 17-2 assessed as reduction in bacterial growth
Pseudomonas aeruginosa [48] = assay: Antibacterial activity against Carbapenem- sensitive Pseudomonas aeruginosa 17-29 assessed as reduction in bacterial growth
Acinetobacter baumannii [49] = assay: Antibacterial activity against Carbapenem- resistant Acinetobacter baumannii 17-13 assessed as reduction in bacterial growth
Escherichia coli [50] = assay: Antibacterial activity against ESBLs positive Carbapenem-sensitive Escherichia coli 17-22 assessed as reduction in bacterial growth
Klebsiella pneumoniae [51] = assay: Antibacterial activity against Carbapenem- sensitive Klebsiella pneumoniae 17-1 overexpressing extended spectrum beta-lactamases assessed as reduction in bacterial growth
Klebsiella aerogenes [52] = assay: Antibacterial activity against Enterobacter aerogenes 17-5 assessed as reduction in bacterial growth
Klebsiella pneumoniae [53] = assay: Antibacterial activity against Carbapenem- resistant Klebsiella pneumoniae KR 15-7 assessed as reduction in bacterial growth
Klebsiella pneumoniae [54] = assay: Antibacterial activity against ESBLs negative Carbapenem-sensitive Klebsiella pneumoniae 17-20 assessed as reduction in bacterial growth

Structure (SMILES): Nc1nc(/C(=N/OCc2cc(=O)c(O)cn2O)C(=O)N[C@@H]2C(=O)N3C(C(=O)O)=CCS[C@H]23)cs1
- MIC (Acinetobacter baumannii [1]): > 64 µg/mL
- MIC (Acinetobacter baumannii [2]): > 64 µg/mL
- MIC (Pseudomonas aeruginosa [3]): 1 µg/mL (≈ 1.97 µM)
- MIC (Klebsiella pneumoniae [4]): 1 µg/mL (≈ 1.97 µM)
- MIC (Klebsiella pneumoniae [5]): > 64 µg/mL
- MIC (Klebsiella pneumoniae [6]): > 64 µg/mL
- MIC (Escherichia coli [7]): 64 µg/mL (≈ 126 µM)
- MIC (Klebsiella pneumoniae [8]): > 64 µg/mL
- MIC (Acinetobacter baumannii [9]): > 64 µg/mL
- MIC (Klebsiella aerogenes [10]): 8 µg/mL (≈ 15.7 µM)
- MIC (Klebsiella pneumoniae [11]): 0.5 µg/mL (≈ 0.983 µM)
- MIC (Escherichia coli [12]): > 64 µg/mL
- MIC (Pseudomonas aeruginosa [13]): 4 µg/mL (≈ 7.87 µM)
- MIC (Klebsiella pneumoniae [14]): > 64 µg/mL
- MIC (Enterobacter cloacae [15]): 1 µg/mL (≈ 1.97 µM)
- MIC (Pseudomonas aeruginosa [16]): 2 µg/mL (≈ 3.93 µM)
- MIC (Klebsiella pneumoniae [17]): 64 µg/mL (≈ 126 µM)
- MIC (Klebsiella pneumoniae [18]): 2 µg/mL (≈ 3.93 µM)
- MIC (Klebsiella aerogenes [19]): 2 µg/mL (≈ 3.93 µM)
- MIC (Klebsiella pneumoniae [20]): > 64 µg/mL
- MIC (Klebsiella pneumoniae [21]): > 64 µg/mL
- MIC (Klebsiella pneumoniae [22]): 1 µg/mL (≈ 1.97 µM)
- MIC (Pseudomonas aeruginosa [23]): 32 µg/mL (≈ 62.9 µM)
- MIC (Klebsiella pneumoniae [24]): 64 µg/mL (≈ 126 µM)
- MIC (Escherichia coli [25]): 32 µg/mL (≈ 62.9 µM)
- MIC (Pseudomonas aeruginosa [26]): 64 µg/mL (≈ 126 µM)
- MIC (Escherichia coli [27]): 4 µg/mL (≈ 7.87 µM)
- MIC (Klebsiella pneumoniae [28]): 16 µg/mL (≈ 31.5 µM)
- MIC (Escherichia coli [29]): > 64 µg/mL
- MIC (Klebsiella pneumoniae [30]): > 64 µg/mL
- MIC (Acinetobacter baumannii [31]): > 64 µg/mL
- MIC (Klebsiella pneumoniae [32]): > 64 µg/mL
- MIC (Escherichia coli [33]): 0.5 µg/mL (≈ 0.983 µM)
- MIC (Klebsiella aerogenes [34]): 8 µg/mL (≈ 15.7 µM)
- MIC (Escherichia coli [35]): 16 µg/mL (≈ 31.5 µM)
- MIC (Klebsiella pneumoniae [36]): 0.125 µg/mL (≈ 0.246 µM)
- MIC (Klebsiella aerogenes [37]): 32 µg/mL (≈ 62.9 µM)
- MIC (Acinetobacter baumannii [38]): > 64 µg/mL
- MIC (Pseudomonas aeruginosa [39]): 32 µg/mL (≈ 62.9 µM)
- MIC (Pseudomonas aeruginosa [40]): 4 µg/mL (≈ 7.87 µM)
- MIC (Enterobacter cloacae [41]): 1 µg/mL (≈ 1.97 µM)
- MIC (Acinetobacter baumannii [42]): > 64 µg/mL
- MIC (Acinetobacter baumannii [43]): > 64 µg/mL
- MIC (Klebsiella pneumoniae [44]): > 64 µg/mL
- MIC (Enterobacter cloacae [45]): 8 µg/mL (≈ 15.7 µM)
- MIC (Escherichia coli [46]): 2 µg/mL (≈ 3.93 µM)
- MIC (Enterobacter cloacae [47]): > 64 µg/mL
- MIC (Pseudomonas aeruginosa [48]): 2 µg/mL (≈ 3.93 µM)
- MIC (Acinetobacter baumannii [49]): > 64 µg/mL
- MIC (Escherichia coli [50]): > 64 µg/mL
- MIC (Klebsiella pneumoniae [51]): 64 µg/mL (≈ 126 µM)
- MIC (Klebsiella aerogenes [52]): 64 µg/mL (≈ 126 µM)
- MIC (Klebsiella pneumoniae [53]): > 64 µg/mL
- MIC (Klebsiella pneumoniae [54]): 0.06 µg/mL (≈ 0.118 µM)
